Data reported in ChEMBL document CHEMBL1201862, “PubChem BioAssay data set” (2004).
Where “and” joins values, the source holds several entries; their conditions need not be identical. Equal values may be shown once.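 Growth conditions: 96-well plates. Treatment: test compound, 48 hours, 5 concentrations. Analysis: linear interpolation between bracketing concentrations; unreached endpoints set to highest concentration. The concentration for 50% growth inhibition is given as GI50.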 Calls of active or inactive are those of the source. Cut-off read from the data, not from the text of the source: active = GI50 up to about 1.1 µM and inactive = higher.

Key:
Test in all cases: NCI-60 cell line screen, 48 h
SR = tested on: SR
NCI-H226 = tested on: NCI-H226
OVCAR-3 = tested on: OVCAR-3
OVCAR-5 = tested on: OVCAR-5
OVCAR-8 = tested on: OVCAR-8
T47D = tested on: T47D
HT-29 = tested on: HT-29
HCT-15 = tested on: HCT-15
IGROV-1 = tested on: IGROV-1
A498 = tested on: A498
KM12 = tested on: KM12
NCI-H23 = tested on: NCI-H23
K562 = tested on: K562
SNB-19 = tested on: SNB-19
HCC 2998 = tested on: HCC 2998
MCF7 = tested on: MCF7
NCI-H522 = tested on: NCI-H522
COLO 205 = tested on: COLO 205
DU-145 = tested on: DU-145
MDA-MB-231 = tested on: MDA-MB-231
PC-3 = tested on: PC-3
CAKI-1 = tested on: CAKI-1
MDA-N = tested on: MDA-N
UO-31 = tested on: UO-31
U-251 = tested on: U-251
RXF 393 = tested on: RXF 393
SK-OV-3 = tested on: SK-OV-3
BT-549 = tested on: BT-549
HCT-116 = tested on: HCT-116
RPMI-8226 = tested on: RPMI-8226
NCI/ADR-RES = tested on: NCI/ADR-RES
SNB-75 = tested on: SNB-75
SK-MEL-2 = tested on: SK-MEL-2
SN12C = tested on: SN12C
UACC-257 = tested on: UACC-257
SF-295 = tested on: SF-295
SF-539 = tested on: SF-539
786-0 = tested on: 786-0
ACHN = tested on: ACHN
SF-268 = tested on: SF-268
UACC-62 = tested on: UACC-62
NCI-H460 = tested on: NCI-H460
OVCAR-4 = tested on: OVCAR-4
MDA-MB-435 = tested on: MDA-MB-435
CCRF-CEM = tested on: CCRF-CEM
Malme-3M = tested on: Malme-3M
SK-MEL-28 = tested on: SK-MEL-28
TK-10 = tested on: TK-10
A549 = tested on: A549
MOLT-4 = tested on: MOLT-4
M14 = tested on: M14
SK-MEL-5 = tested on: SK-MEL-5
EKVX = tested on: EKVX
HL-60 = tested on: HL-60
LOX IMVI = tested on: LOX IMVI
SW-620 = tested on: SW-620
Hs-578T = tested on: Hs-578T
HOP-62 = tested on: HOP-62

Measured: GI50

COC(=O)C(Cc1ccccc1)NC(=O)C(CNC(=O)OCc1ccccc1)C(=O)OCc1ccccc1 (stereo not drawn)
> 100 µM: HCT-15
inactive: SR > 100 µM and 56.1 µM | NCI-H226 54.8 µM and 57.5 µM | OVCAR-3 36.6 µM and 32.3 µM | OVCAR-5 > 100 µM | OVCAR-8 > 100 µM | T47D 79.6 µM and 47.8 µM | HT-29 > 100 µM | IGROV-1 98.4 µM and 60.3 µM | A498 > 100 µM | KM12 > 100 µM | NCI-H23 > 100 µM | K562 > 100 µM | SNB-19 > 100 µM | HCC 2998 > 100 µM | MCF7 30.2 µM and 48.2 µM | NCI-H522 29.4 µM and 32.2 µM | COLO 205 51.1 µM | DU-145 > 100 µM | MDA-MB-231 38.7 µM and 23 µM | PC-3 58.3 µM | CAKI-1 48.6 µM and 64 µM | MDA-N > 100 µM | UO-31 > 100 µM and 95.5 µM | U-251 31.3 µM and 46.7 µM | RXF 393 13.2 µM | SK-OV-3 59.7 µM | BT-549 > 100 µM | HCT-116 70.3 µM and 71 µM | RPMI-8226 > 100 µM | NCI/ADR-RES > 100 µM | SNB-75 42.6 µM and 21.8 µM | SK-MEL-2 > 100 µM and 86.5 µM | SN12C > 100 µM

COc1cc(-c2nc3cc(F)ccc3s2)ccc1O
inactive: SR 29.7 µM | NCI-H226 26.4 µM | UACC-257 19 µM | OVCAR-3 12.8 µM | SF-295 43.7 µM | OVCAR-5 > 100 µM | SF-539 49.4 µM | OVCAR-8 > 100 µM | HT-29 39.3 µM | 786-0 37.1 µM | ACHN 89.5 µM | IGROV-1 10.9 µM | SF-268 41.4 µM | A498 18.5 µM | KM12 18.6 µM | UACC-62 36.6 µM | NCI-H460 70.5 µM | OVCAR-4 21.9 µM | NCI-H23 42.2 µM | K562 82.8 µM | SNB-19 83.2 µM | MCF7 4.61 µM | NCI-H522 19.5 µM | MDA-MB-435 > 100 µM | CCRF-CEM 28.8 µM | Malme-3M 78.9 µM | COLO 205 16.4 µM | SK-MEL-28 33.8 µM | TK-10 33.7 µM | DU-145 82.8 µM | MDA-MB-231 34.2 µM | A549 67.5 µM | PC-3 49 µM | CAKI-1 28.2 µM | MDA-N 99.3 µM | MOLT-4 56.8 µM | UO-31 34.8 µM | M14 58.3 µM | U-251 54.1 µM | RXF 393 > 100 µM | SK-OV-3 35.2 µM | SK-MEL-5 12.1 µM | BT-549 20.6 µM | HCT-116 62.7 µM | RPMI-8226 41.1 µM | NCI/ADR-RES 78.9 µM | EKVX 5.73 µM | SK-MEL-2 > 100 µM | HL-60 41 µM | SN12C 85.1 µM | LOX IMVI 39.1 µM | SW-620 > 100 µM
active: T47D 286 nM | HCC 2998 0.0622 µM
11.7 µM: HCT-15

NC(=O)Cn1c(=O)oc2cc(C(=O)CN3CCOCC3)ccc21
inactive: SR > 100 µM | NCI-H226 > 100 µM | OVCAR-3 > 100 µM | SF-295 > 100 µM | OVCAR-5 > 100 µM | SF-539 > 100 µM | OVCAR-8 > 100 µM | HT-29 > 100 µM | 786-0 > 100 µM | IGROV-1 > 100 µM | SF-268 > 100 µM | A498 > 100 µM | KM12 > 100 µM | K562 > 100 µM | SNB-19 > 100 µM | MCF7 > 100 µM | MDA-MB-435 > 100 µM | CCRF-CEM > 100 µM | Malme-3M > 100 µM | COLO 205 > 100 µM | SK-MEL-28 > 100 µM | Hs-578T > 100 µM | DU-145 > 100 µM | MDA-MB-231 > 100 µM | PC-3 > 100 µM | CAKI-1 > 100 µM | MDA-N > 100 µM | MOLT-4 > 100 µM | HOP-62 > 100 µM | M14 > 100 µM | U-251 > 100 µM | RXF 393 > 100 µM | SK-OV-3 > 100 µM | SK-MEL-5 > 100 µM | HCT-116 > 100 µM | RPMI-8226 > 100 µM | NCI/ADR-RES > 100 µM | SNB-75 18.5 µM | EKVX > 100 µM | SK-MEL-2 > 100 µM | HL-60 > 100 µM | SN12C > 100 µM | LOX IMVI > 100 µM | SW-620 > 100 µM
